Laboratory results from ChEMBL document CHEMBL3045888, “Synthesis and anti-hypertensive activity of novel sulphadimidine derivatives” (Med Chem Res, 2012).
Calls of active or inactive are those of the source. The rule behind the calls is not given here.

System: Rattus norvegicus
Assay: Antihypertensive activity in hypertensive Rattus norvegicus Sprague-Dawley (rat) model assessed as reduction in mean systolic blood pressure level at 0.3 mg/kg, ip after 1 hr by non-invasive tail cuff method
Assay type: functional, organism-based
Design: dose 0.3 mg/kg
Settings: Artery

SMILES | Activity
CCN(Cc1ccccc1)c1ccc(/N=N\c2ccc(S(=O)(=O)Nc3nc(C)cc(C)n3)cc2)cc1 | Active
COc1cc2nc(N3CCN(C(=O)c4ccco4)CC3)nc(N)c2cc1OC | Active
CCNc1ccc(/N=N\c2ccc(S(=O)(=O)Nc3nc(C)cc(C)n3)cc2)cc1 | Active
CCN(CC)c1ccc(/N=N\c2ccc(S(=O)(=O)Nc3nc(C)cc(C)n3)cc2)cc1 | Active
Cc1cc(C)nc(NS(=O)(=O)c2ccc(/N=N\c3ccc(N(C)C)cc3)cc2)n1 | Active
